4 compounds from patent US20120238105A1, “FORMULATIONS FOR THE PRODUCTION OF ELECTRONIC DEVICES” (Merck Patent GmbH, priority 2009, published 2012) can be followed below.

The nature of the series: solubility of matrix compounds for producing devices from solution. The format is physicochemical. The settings on record: compounds dissolved in toluene or chlorobenzene for spin coating of the emission layer (matrix with 5% by weight emitter). The procedure: Materials according to the invention are used from solution, where they result in simple devices having nevertheless good properties. The production of such components is based on the production of polymeric light-emitting diodes (PLEDs), which has already been described many times in the literature (for example in WO 2004/037887 A2). In the present case, the compounds according to the invention are dissolved in toluene or chlorobenzene. The concentration employed in the examples given here is 20% by weight of the emitter (T-1 or compound 18) and 80% by weight of the matrix materials (compounds 5 to 17). The typical solids content of such solutions is between 16 and 25 g/l if, as here, the typical layer thickness of 80 nm for a device is to be achieved by means of spin coating.
The concentration employed in the examples given here is 5% by weight of the emitter (SEB-095, Merck) and 95% by weight of the matrix materials (compounds 28 and 29). The typical solids content of such solutions is […] if, as here, the typical layer thickness of 50 nm for a device is to be achieved by means of spin coating.
As for `c1ccc(-c2c3ccccc3c(-c3cccc4c3ccc3cc5ccccc5cc34)c3ccccc23)cc1` [Compound 25], the solubility entry is “poor solubility”.
The result for `c1ccc(-c2cc(-c3ccccc3)cc(-c3c4ccccc4c(-c4cccc5c4ccc4cc6ccccc6cc45)c4ccccc34)c2)cc1` [Compound 28] reads “improved solubility”; that for `c1ccc(-c2cc(-c3ccccc3)cc(-c3cccc(-c4c5ccccc5c(-c5cccc6c5ccc5cc7ccccc7cc56)c5ccccc45)c3)c2)cc1` [Compound 29], “improved solubility”; that for `c1ccc(-c2cccc(-c3c4ccccc4c(-c4cccc5c4ccc4cc6ccccc6cc45)c4ccccc34)c2)cc1` [Compound 27], “poor solubility”.
